What was measured:
[1] = Cytotoxicity to BALB/c mouse total splenocytes (MTT); assay type: cell-based; settings: male, total splenocytes (primary), 100 μM, 48 h, compared to the untreated control (Table S1)
Protocol: BALB/c mouse total splenocytes were harvested from male mice between 6–8 weeks old. After euthanasia, the spleens were removed and macerated in DMEM. After centrifugation, the cells were treated with hemolytic ACK buffer at 37 °C for 5 min. […] After incubation for 48 h at 37 °C in 5% CO2, cell viability was determined after the addition of 20 µL per well of a solution containing MTT salt (3.0 mM) and phenazine metasulphate (0.72 mM). After further incubation for 1 h at 37 °C, the medium was removed, and DMSO was added to dissolve the dark-blue formazan crystals formed by MTT reduction. Absorbance was measured on a microplate reader at 570 nm.
(§1) The percent cell or parasite viability was calculated by the formula: % viability = [(A − P)/(N − P)] × 100, A = absorbance of specific well, P = positive control, N = negative control. Determination of half-maximal effective concentrations (EC50), calculated by logarithmic regression, and significance analysis (p < 0.05), using ANOVA and Dunnett’s test, by GraphPad Prism 7.0 software. The results are expressed as the mean and standard deviation (SD) of three independent experiments.

[2] = Cytotoxicity to LLC-MK2 host cells (MTT); assay type: cell-based; settings: rhesus monkey, screening at 50 μM, 120 h
Protocol: LLC-MK2 kidney fibroblasts (ATCC) and RAW 264.7 macrophages (ATCC) were cultivated in culture flasks in complete DMEM with 5% FBS at 37 °C in 5% CO2. The LLC-MK2 cell monolayer was detached by treatment with trypsin-EDTA 0.05% for 5 min at 37 °C. The RAW cell monolayer was detached mechanically. In both cases, the cells were centrifuged at 480× g for 6 min and resuspended in complete DMEM with 5% FBS, and the cell density was determined by counting with trypan-blue dye exclusion on Neubauer chambers before use.
LLC-MK2 cells were seeded in a 96-well microplate (1.0 × 10^4 cells per well) in complete DMEM with 5% FBS (120 µL per well). After incubation for 24 h at 37 °C in 5% CO2, the medium was renewed, and compounds were added at a range of concentrations in triplicate (50 μM or 100–1 μM). Untreated cells and cells treated with DMEM and 10% DMSO were used as negative and positive controls, respectively. Vehicle control containing DMEM and 0.3% DMSO was maintained for comparison. After incubation for 120 h at 37 °C in 5% CO2, the medium was renewed, and MTT salt solution in PBS was added (3.0 mM, 20 µL per well). After incubation for 2 h at 37 °C in 5% CO2, the supernatant was removed, and MTT formazan was dissolved in DMSO (150 µL per well). Absorbance was measured using a microplate reader at 570 nm.
as §1

K562 = assay: MTT cytotoxicity to CML cell line K562; assay type: cell-based; settings: Homo sapiens, 72 h
Protocol: (§2) The CML cell lines K562, Lucena-1 (K562/VCR), and FEPS (K562/DNR) were cultured in RPMI-1640 medium supplemented with 25 mM HEPES and 2 g L^−1 sodium bicarbonate adjusted to pH 7.4 with NaOH, 100 U penicillin and […] streptomycin. All media were supplemented with 10% FBS. Dr. Vivian M. Rumjanek (Instituto de Bioquímica Médica, UFRJ, Brazil) kindly donated Lucena-1 and FEPS cells. Briefly, K562 cells were exposed to increasing concentrations of the chemotherapeutic drugs vincristine sulfate (VCR) and daunorubicin hydrochloride (DNR) (both from Sigma-Aldrich), as described previously. Lucena-1 (K562/VCR) and FEPS (K562/DNR) cells were cultured in the presence of either 60 nM VCR or 500 nM DNR to maintain the MDR phenotypes. For subcultures, cells were harvested every three days followed by washing with cold FBS, and a final concentration of 2 × 10^4 cells mL^−1 was maintained at 37 °C in 5% CO2.
(§3) Cell viability was determined by the 3-(4,5-dimethylthiazol-2-yl)-2,5-diphenyltetrazolium (MTT) colorimetric assay. CML cells (2 × 10^4 cells·mL^−1) were incubated for 72 h at 37 °C, followed by treatment with compounds at a range of concentrations (100–1 μM). Negative controls were prepared with 0.5% DMSO. An MTT salt solution was added to each well to a final concentration of 0.5 g·L^−1, and plates were incubated at 37 °C in 5% CO2 for 3 h. After centrifugation, 200 μL DMSO was added to dissolve the dark-blue formazan crystals formed by MTT reduction. Absorbance was measured on a microplate reader at 570 nm, which is directly proportional to formazan contents and indicative of living cells.
as §1

[3] = system: L. amazonensis promastigotes; assay: Anti-L. amazonensis promastigote assessment (MTT); assay type: cell-based; settings: Leishmania amazonensis; 48 h, MTT; read-out: EC50 L. amazonensis promastigotes
Protocol: Promastigotes of L. amazonensis (MHOM/BR/75/Josefa) were cultured in Schneider’s insect medium (SIM) with 10% FBS. Parasites were harvested at the stationary growth phase for assessment against promastigotes and 24 h after cultures reached the stationary growth phase for infection assays. […]. Complete SIM media and amphotericin B (AmB) at 10 µM were used as negative and positive controls, respectively. A vehicle control containing SIM with 10% SFB media and 0.3% DMSO was maintained for comparison. The final volume of the experiment was 100 µL. After incubation for 48 h at 27 °C, MTT salt solution in PBS was added (3.0 mM, 20 µL per well). After incubation for 2 h at 27 °C, the MTT formazan was dissolved by adding 120 µL of solubilizing buffer (50% isopropanol, 40% acetate buffer pH 5.4, 10% Triton-X). Absorbance was measured using a microplate reader at 570 nm.
as §1

FEPS (K562/DNR) = assay: MTT cytotoxicity to MDR CML cell line FEPS; assay type: cell-based, human; settings: for RR (relative resistance) FEPS: (EC50 MDR cells)/(EC50 parental cells), FEPS/K562; for EC50: Homo sapiens, K562, 72 h, MTT
Protocol: as §2, §3, §1

[4] = system: T. cruzi amastigotes (Tulahuen C2C4 LacZ strain); assay: microbe, parasite or virus in culture; assay type: cell-based, Trypanosoma cruzi; settings: Trypanosoma cruzi, TULAHUEN, LLC-MK2, 120 h, screening at 50 μM, 120 h, compared with untreated controls
Protocol: To a monolayer of 1.0 × 10^7 LLC-MK2 cells in a 150 cm^2 culture flask were added 5.0 × 10^7 trypomastigotes of T. cruzi expressing the […] (Tulahuen C2C4 LacZ) in complete DMEM with 2.5% FBS. The infection was allowed to occur for 24 h, the supernatant was removed, and the cell monolayer was washed with PBS. Complete DMEM with 2.5% FBS was renewed every 2 days up to the sixth day after infection. Trypomastigote forms were collected daily from the supernatant between days 7 and 12 after infection, enriched by differential centrifugation (1500× g for 10 min, 5580× g for 20 min), and resuspended in complete DMEM with 5% FBS. Parasite density was determined by counting the mobile trypomastigotes on Neubauer chambers before use.
. The medium was renewed, and trypomastigote forms of T. cruzi (Tulahuen C2C4 LacZ strain, 2.0 × 10^5 parasites per well) were added. After incubation for 24 h at 37 °C in 5% CO2, the cell monolayer was washed with PBS to remove noninternalized parasites. DMEM without phenol red and 5% FBS was added, and infected cells were treated with compounds at a range of concentrations in triplicate (50 μM or 100–1 μM). Untreated infected cells and noninfected LLC-MK2 cells were used as negative and positive controls, respectively. Vehicle control containing DMEM without phenol red and 0.3% DMSO was maintained for comparison. After incubation for 120 h at 37 °C in 5% CO2, a solution containing […] and 0.8% IGEPAL CA-630 in PBS (30 µL per well), followed by further incubation for 2 h at 37 °C in 5% CO2. Absorbance was measured using a microplate reader at 570 nm.
as §1

Lucena-1 (K562/VCR) = assay: cells; assay type: cell-based, human; settings: for RR (relative resistance) Lucena-1: (EC50 MDR cells)/(EC50 parental cells), Lucena-1/K562; for EC50: Homo sapiens, Lucena 1, 72 h, read-out: EC50 Lucena-1
Protocol: as §2, §3, §1

[5] = LLC-MK2 cells (kidney fibroblasts)

Structure (SMILES): C(=C\c1nc(-c2ccccc2)no1)/c1ccco1 [Compound 16, (E)-3-phenyl-5-[2-fur-2-yl-vinyl]-1,2,4-oxadiazole]
- viability at 48 h, 100 µM [1]: 53.5 ± 5.2%
- viability at 120 h, 50 µM [2, 5]: 89.2 ± 1.4%
- EC50 (K562): 52.8 ± 17.7 µM
- EC50 [3]: 47.1 ± 3.7 µM
- RR (relative resistance) FEPS (FEPS (K562/DNR)): 1.03
- EC50 (FEPS (K562/DNR)): 54.7 ± 1.7 µM
- melting point: 83 to 85 °C
- viability at 50 µM [4]: 83 ± 3.7%
- RR (relative resistance) Lucena-1 (Lucena-1 (K562/VCR)): 1.23
- EC50 (Lucena-1 (K562/VCR)): 65 ± 9.6 µM

Structure (SMILES): C(=C\c1cccs1)/c1nc(-c2ccccc2)no1 [Compound 17, (E)-3-phenyl-5-[2-thiophen-2-yl-vinyl]-1,2,4-oxadiazole]
- viability at 48 h, 100 µM [1]: 99 ± 8.4%
- viability at 120 h, 50 µM [2]: 86.2 ± 7.1%
- EC50 (K562): > 100 µM
- EC50 [3]: 77.6 ± 6.3 µM
- RR (relative resistance) FEPS (FEPS (K562/DNR)): <0.56
- EC50 (FEPS (K562/DNR)): 55.7 ± 17.2 µM
- melting point: 93 to 95 °C
- viability at 50 µM [4]: 69.6 ± 6.3%
- RR (relative resistance) Lucena-1 (Lucena-1 (K562/VCR)): <0.72
- EC50 (Lucena-1 (K562/VCR)): 71.9 ± 0.6 µM

Structure (SMILES): Fc1ccc(/C=C/c2nc(-c3ccccc3)no2)cc1 [Compound 18, (E)-3-phenyl-5-[2-(4-fluorophenyl)vinyl]-1,2,4-oxadiazole]
- viability at 48 h, 100 µM [1]: 102 ± 11.5%
- viability at 120 h, 50 µM [2, 5]: 90.7 ± 4.3%
- EC50 (K562): > 100 µM
- EC50 [3]: > 100 µM
- RR (relative resistance) FEPS (FEPS (K562/DNR)): <0.67
- EC50 (FEPS (K562/DNR)): 66.7 ± 9.6 µM
- viability at 50 µM [4]: 82.8 ± 4.7%
- RR (relative resistance) Lucena-1 (Lucena-1 (K562/VCR)): <0.59
- EC50 (Lucena-1 (K562/VCR)): 59.9 ± 12.2 µM

Structure (SMILES): Clc1ccc(/C=C/c2nc(-c3ccccc3)no2)cc1 [Compound 19, (E)-3-phenyl-5-[2-(4-chlorophenyl)vinyl]-1,2,4-oxadiazole]
- viability at 48 h, 100 µM [1]: 90.5 ± 5.3%
- viability at 120 h, 50 µM [2, 5]: 77.8 ± 0.9%
- EC50 (K562): 47.1 ± 1.2 µM
- EC50 [3]: > 100 µM
- RR (relative resistance) FEPS (FEPS (K562/DNR)): >2.12
- EC50 (FEPS (K562/DNR)): > 100 µM
- viability at 50 µM [4]: 83.4 ± 5.9%
- RR (relative resistance) Lucena-1 (Lucena-1 (K562/VCR)): 0.92
- EC50 (Lucena-1 (K562/VCR)): 43.4 ± 3.4 µM

Structure (SMILES): O=[N+]([O-])c1ccc(/C=C/c2nc(-c3ccccc3)no2)cc1 [Compound 20, (E)-3-phenyl-5-[2-(4-nitrophenyl)vinyl]-1,2,4-oxadiazole]
- viability at 48 h, 100 µM [1]: 77.8 ± 4.2%
- viability at 120 h, 50 µM [2, 5]: 78.2 ± 2.1%
- EC50 (K562): 34.4 ± 7.4 µM
- EC50 [3]: > 100 µM
- RR (relative resistance) FEPS (FEPS (K562/DNR)): 1.35
- EC50 (FEPS (K562/DNR)): 46.4 ± 4.9 µM
- melting point: 205 to 208 °C
- viability at 50 µM [4]: 74.5 ± 5.4%
- RR (relative resistance) Lucena-1 (Lucena-1 (K562/VCR)): 1.33
- EC50 (Lucena-1 (K562/VCR)): 45.7 ± 4.3 µM

— article PMC9787607, “A Novel Protocol for the Synthesis of 1,2,4-Oxadiazoles Active against Trypanosomatids and Drug-Resistant Leukemia Cell Lines” (Tropical Medicine and Infectious Disease, 2022)
